This assay in a line: Antioxidant assay: DPPH radical-scavenging activity. Particulars: read-out: Antioxidant activity IC50 (DPPH); DPPH method.
In the case of `C[C@@H]1O[C@@H](O[C@H]2[C@H](Oc3c(-c4ccc(O)cc4)oc4cc(O)cc(O)c4c3=O)O[C@H](CO[C@@H]3O[C@H](CO)[C@@H](O)[C@H](O)[C@H]3O)[C@@H](O)[C@@H]2O)[C@H](O)[C@H](O)[C@H]1O` [Compound 2, kaempferol-3-O-β-D-glucopyranosyl-(1 → 6)-[α-L-rhamnopyranosyl-(1 → 2)]-β-D-glucopyranoside], the IC50 (as a rule, the midpoint of a concentration-inhibition curve) came out at 170 ± 5.2 µM.
To `C[C@@H]1O[C@@H](OC[C@H]2O[C@@H](Oc3c(-c4ccc(O)cc4)oc4cc(O)cc(O)c4c3=O)[C@H](O[C@@H]3O[C@H](CO)[C@@H](O)[C@H](O)[C@H]3O)[C@@H](O)[C@@H]2O)[C@H](O)[C@H](O)[C@H]1O` [Compound 4, kaempferol-3-O-β-D-glucopyranosyl-(1 → 2)-[α-L-rhamnopyranosyl-(1 → 6)]-β-D-glucopyranoside] belongs 257 ± 19.9 µM; to `O=c1c(O)c(-c2ccc(O)cc2)oc2cc(O)cc(O)c12` [Compound 5, kaempferol], 36.3 ± 1.1 µM.
To `O=c1c(O[C@@H]2O[C@H](CO)[C@@H](O)[C@H](O)[C@H]2O)c(-c2ccc(O)cc2)oc2cc(O)cc(O)c12` [Compound 6, astragalin] belongs 100 ± 3.2 µM.
To `O=c1c(O)c(-c2ccc(O)cc2)oc2cc(O[C@@H]3O[C@H](CO)[C@@H](O)[C@H](O)[C@H]3O)cc(O)c12` [Compound 7, kaempferol-7-O-β-D-glucopyranoside] belongs 77.6 ± 2.4 µM; to `O=c1c(O[C@@H]2O[C@H](CO)[C@@H](O)[C@H](O)[C@H]2O)c(-c2ccc(O)cc2)oc2cc(O[C@@H]3O[C@H](CO)[C@@H](O)[C@H](O)[C@H]3O)cc(O)c12` [Compound 8, kaempferol-3,7-di-O-β-D-glucopyranoside], 407 ± 22.1 µM; to `C[C@@H]1O[C@@H](OC[C@H]2O[C@@H](O[C@H]3[C@H](Oc4c(-c5ccc(O)cc5)oc5cc(O)cc(O)c5c4=O)O[C@H](CO)[C@@H](O)[C@@H]3O)[C@H](O)[C@@H](O)[C@@H]2O)[C@H](O)[C@H](O)[C@H]1O` [Compound 10, kaempferol-3-O-α-L-rhamnopyranosyl-(1 → 6)-β-D-glucopyranosyl-(1 → 2)-β-D-glucopyranoside], 209 ± 7.3 µM.
For the molecule `O=C1O[C@H]([C@@H](O)CO)C(O)=C1O` [V c, L-ascorbic acid, reference compound], the IC50 is 33.9 ± 1.1 µM.
Consider kaempferol-3-O-rutinoside [Compound 11], for which the IC50 stood at 129 ± 9.2 µM.
